Measured values: patent US20120277246A1, “Use of N-Phenyl-2-pyrimidineamine Derivatives Against Mast Cell-based Diseases Like Allergic Disorders” (priority 2001, published 2012)
Values belong to the compound of their own block, whether it stands above or below them.

How the values were obtained:
[1] = system: cultured mast cells grown under stimulation with SCF; assay: Detection of cellular apoptosis (PI flow cytometry, DNA gel electrophoresis)
[2] = system: cultured human mast cells generated from CD34+ cord blood cells; assay: SCF-dependent growth of cultured human mast cells (suspension culture, trypan-blue viable cell count); assay type: cell-based
Description: (§1) More than 90% of the isolated cells were CD34-positive according to the flow cytometric analysis.
(§2) Serum-deprived liquid cultures are carried out in 24-well culture plates (#3047; Becton Dickinson). Twenty thousand CD34^+ cells are cultured in each well containing 2 mL of […]-medium supplemented with 1% BSA, 300 μg/mL fully iron-saturated human transferrin (approximately 98% pure, Sigma), 16 μg/mL soybean lecithin (Sigma), 9.6 μg/mL cholesterol (Nakalai Chemicals Ltd., Japan) and 20 ng/mL of SCF, 10 ng/mL of GM-CSF, 2 U/mL of EPO, 10 ng/mL of TPO, different concentrations of a COMPOUND OF THE INVENTION, alone or in combination. In order to examine the effects of a COMPOUND OF THE INVENTION on the SCF-dependent development of mast cells, 10-week cultured cells grown with 20 ng/mL of SCF from CD34^+ cord blood cells are used as target cells. Five to ten×10^4 10-week cultured cells are incubated for 2 weeks in 24-well culture plates containing 20 ng/mL of SCF with or without various concentrations of a COMPOUND OF THE INVENTION. The plates are incubated at 37° C. in a humidified atmosphere flushed with a mixture of 5% CO2, 5% O2 and 90% N2. When the culture continued until 4 weeks, half of the culture medium is replaced every 2 weeks with fresh medium containing the factor(s). The number of viable cells is determined by a trypan-blue exclusion test using a hemocytometer.

[3] = system: CD34+ cord blood cells; assay: Cell production by CD34+ cells under stimulation with SCF (suspension culture); assay type: cell-based, human; conditions: STI571B at 10^-6 M
Description: as §1, §2

[4] = system: constitutively activated mutant canine KIT (C2 cells, internal tandem duplication of the juxtamembrane region); assay: KIT autophosphorylation in C2 cells (anti-P-Tyr Western immunoblot); assay type: cell-based
From the text: (§3) Antibodies: A polyclonal rabbit anti-KIT antibody (c-kit Ab-1) was used at a dilution of 1:500 (c-kit Ab-1; Oncogene, Cambridge, Mass.). An anti-phosphotyrosine antibody (PY20) was used at a dilution of 1:1000 (PY20 Transduction Laboratories; Lexington, Ky.). Peroxidase conjugated goat anti-mouse antibody was used at a dilution of 1:5000 and goat anti-rabbit antibody at a dilution of 1:10,000 (Pierce; Rockford, Ill.).
(§4) Cell lines: BR and C2 canine mastocytoma cells lines were obtained from Dr. George Caughey (University of California at San Francisco, San Francisco, Calif.). Both cell lines were maintained in DMEM supplemented with 2% bovine calf, 1 mM L-glutamine, 12.5 mM HEPES (pH 7.5), 0.25 mg/ml Histidine, 1% Penicillin-Streptomycin and 1% fungizone. The BR and C2 cells were derived from canine mast cell tumors and were originally established in long-term culture after initial passaging in immunodeficient mice (DeVinney R et al., Am J Respir Cell Mol Biol 1990; 3(5):413-420; Lazarus S C et al., Am J Physiol 1986; 251(6 Pt 1):C935-C944). The BR cell line has a point mutation (T1752C) resulting in a Leucine to Proline substitution at amino acid 575 (juxtamembrane domain). The C2 cell line has an internal tandem duplication (ITD) of the KIT juxtamembrane region.
(§5) Protein lysates: BR and C2 cells were washed×2 in PBS and then quiesced in Optimem (Gibco-BRL) at 37° C. for approximately 18 hours.
(§6) The KIT mutations in these cell lines are both located in the juxtamembrane domain and are homologous to mutations seen in human Gastrointestinal Stromal Tumors (GISTS) (Lux et al., Am. J. Pathol., Vol. 156, No. 3, pp. 791-795 (2000); Rubin et al., Cancer Res., Vol. 61, No. 22, pp. 8118-8121 (2001)). Lysates prepared from BR or C2 cells were probed with an anti-P-Tyr antibody and KIT receptor activation was assessed by measuring autophosphorylation.

[5] = system: C2 canine mastocytoma cells; assay: Proliferation of C2 cells, XTT-based assay; assay type: cell-based; conditions: for % (percent of maximal proliferation, cells only) / Averages (XTT-based assay reading): 72 hours; for Averages (XTT-based assay reading): triplicate
Description: as §4, with “region. The translation of this ITD results in reduplication of amino acid residues at the 3′ end of exon 11 (London et al., Exp. Hematol., Vol. 27, No. 4, pp. 689-697 (1999); Ma et al., J. Invest. Dermatol., Vol. 112, No. 2, pp. 165-170 (1999)).” for “region.”
(§7) Proliferation assays: Cells were added to 96-well plates at a density of 40,000 cells/well in normal culture media and varying concentrations of SALT I. Proliferation was measured at 48-72 hours using an XTT-based assay (Roche Molecular Biochemicals; Indianapolis, Ind.) (Heinrich et al., Blood, Vol. 96, No. 3, pp. 925-932 (2000))
(§8) Representative results from one of six independent experiments are shown.

[6] = system: C2 canine mastocytoma cells; assay: Proliferation of C2 cells, XTT-based assay; assay type: cell-based; conditions: C2 cells (data not shown)
[7] = system: BR canine mastocytoma cells; assay: Proliferation of BR cells, XTT-based assay; assay type: cell-based; conditions: for % (percent of maximal proliferation, cells only) / Averages (XTT-based assay reading): 72 hours; for Averages (XTT-based assay reading): triplicate
Description: as §4, with “region. The translation of this ITD results in reduplication of amino acid residues at the 3′ end of exon 11 (London et al., Exp. Hematol., Vol. 27, No. 4, pp. 689-697 (1999); Ma et al., J. Invest. Dermatol., Vol. 112, No. 2, pp. 165-170 (1999)).” for “region.”
as §7, §8

[8] = system: cutaneous mast cell tumors; assay: Prospective case series of pet dogs with measurable cutaneous mast cell tumors; assay type: in vivo; conditions: 25 mg/kg PO QD x 60 days of SALT I, prospective example
Description: The study patients are pet dogs with measurable and histologically-confirmed mast cell tumors. Cases are limited to those with measurable lesions amenable to biopsy.
Eligibility criteria are: • Histologically-confirmed measurable cutaneous mast cell tumors • Cases will require serial biopsy with […] Keyes punch before and during therapy • Histological grade (II-intermediate or III-poorly differentiated) • Performance status 0 or I (Modified Karnofsky—Table 3) • Informed owner consent
Exclusion criteria are: • Concurrent cytotoxic chemotherapy • Prednisone and non-steroidal anti-inflammatory drugs may not be initiated within 30 days of the study; if prednisone or non-steroidal anti-inflammatory drugs have been administered for greater than 30 days they may be continued • Abnormal serum bile acid test (liver function)
Pretreatment evaluation of all cases include physical examination, complete blood count, buffy coat, serum biochemistry, urinalysis, serum bile acids (fasting and post-prandial), documentation of regional lymph node size, abdominal radiographs, and abdominal ultrasound. […]
The efficacy of COMPOUND I is assessed against measurable cutaneous mast cell tumors, using clinical endpoints. […]
Clinical endpoints include response rate of measurable tumors, objective response against measurable tumor, and time to progression of measurable tumor. All adverse side effects will be recorded.

[9] = target: T1, constitutively activated mutant canine KIT (BR cells, Leucine to Proline substitution at amino acid 575) (Canis lupus familiaris, UniProt O97799, L579P); assay: KIT autophosphorylation in BR cells (anti-P-Tyr Western immunoblot); assay type: cell-based
T1 construct: Lysates prepared from BR or C2 cells were probed with an anti-P-Tyr antibody; endogenous in cells; host or cells: BR canine mastocytoma cell line
From the text: as §3, §4, §5, §6

[10] = membrane reprobed with anti-c-kit antibody

T1 sequence (O97799 28-979 L579P): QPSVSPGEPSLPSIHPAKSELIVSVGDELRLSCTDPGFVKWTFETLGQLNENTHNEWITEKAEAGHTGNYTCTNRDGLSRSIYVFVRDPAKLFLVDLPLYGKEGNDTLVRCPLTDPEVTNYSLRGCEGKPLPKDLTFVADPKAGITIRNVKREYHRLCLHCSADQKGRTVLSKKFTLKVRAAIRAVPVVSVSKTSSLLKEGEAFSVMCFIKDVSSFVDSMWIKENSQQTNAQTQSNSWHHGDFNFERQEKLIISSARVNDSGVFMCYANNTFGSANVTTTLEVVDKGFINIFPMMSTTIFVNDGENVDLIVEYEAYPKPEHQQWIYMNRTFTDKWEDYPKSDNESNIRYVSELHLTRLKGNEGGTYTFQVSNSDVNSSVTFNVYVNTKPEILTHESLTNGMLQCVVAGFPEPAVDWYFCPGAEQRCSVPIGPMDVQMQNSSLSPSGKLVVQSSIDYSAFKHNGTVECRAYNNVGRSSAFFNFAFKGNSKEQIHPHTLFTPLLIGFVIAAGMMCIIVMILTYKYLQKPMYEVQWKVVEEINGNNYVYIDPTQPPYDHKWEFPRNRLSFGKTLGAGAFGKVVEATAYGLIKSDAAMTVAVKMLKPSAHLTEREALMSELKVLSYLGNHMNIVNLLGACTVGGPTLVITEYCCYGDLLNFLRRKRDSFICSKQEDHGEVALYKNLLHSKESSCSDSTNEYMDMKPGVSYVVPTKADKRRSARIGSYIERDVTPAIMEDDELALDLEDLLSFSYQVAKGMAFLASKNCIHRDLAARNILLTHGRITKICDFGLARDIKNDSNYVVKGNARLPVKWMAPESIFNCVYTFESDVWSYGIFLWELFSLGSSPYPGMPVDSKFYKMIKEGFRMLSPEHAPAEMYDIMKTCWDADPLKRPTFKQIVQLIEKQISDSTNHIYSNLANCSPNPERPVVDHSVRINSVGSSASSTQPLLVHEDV

SMILES: Cc1ccc(NC(=O)c2ccc(CN3CCN(C)CC3)cc2)cc1Nc1nccc(-c2cccnc2)n1 [STI571B, N-{5-[4-(4-methyl-piperazino-methyl)-benzoylamido]-2-methyl-phenyl}-4-(3-pyridyl)-2-pyrimidine-amine monomesylate]
- percentage of sub-diploid nuclei ([1]; SCF plus STI571B, over culture period): increases with the culture period
- DNA laddering on gel electrophoresis ([1]; cells exposed to SCF plus STI571B): DNA laddering
- programmed death of cultured mast cells ([1]; grown under stimulation with SCF): induces a programmed death
- number of viable cells ([2]; SCF plus STI571B, after day 2): declines in a time-dependent fashion
- number of viable cells ([2]; SCF plus STI571B, day 2): unchanged
- total cell number ([2]; SCF plus STI571B, day 14): negligible level
- progeny generation in culture with SCF ([2]; STI571B at 10^-6 M or higher, 10-week cultured mast cells, SCF): almost completely inhibits
- cell production by CD34+ cells under stimulation with SCF [3]: markedly depresses

- inhibition of KIT autophosphorylation ([9]; 0.1 μM): Near complete inhibition
- inhibition of KIT autophosphorylation ([9]; 1.0 μM): complete inhibition
- inhibition of KIT autophosphorylation ([9]; 10 μM): complete inhibition
- autophosphorylation of c-kit ([9]; 0.001-0.01 μM): Limited autophosphorylation
- expression of c-kit protein [9, 10]: no change
SMILES: Cc1ccc(NC(=O)c2ccc(CN3CCN(C)CC3)cc2)cc1Nc1nccc(-c2cccnc2)n1 [COMPOUND I]
- inhibition of KIT autophosphorylation ([4]; 0.1 μM): Near complete inhibition
- inhibition of KIT autophosphorylation ([4]; 1.0 μM): complete inhibition
- inhibition of KIT autophosphorylation ([4]; 10 μM): complete inhibition
- autophosphorylation of c-kit ([4]; 0.001-0.01 μM): Limited autophosphorylation
- expression of c-kit protein [4, 10]: no change
- % (percent of maximal proliferation, cells only) ([5]; 1 μM): 3%
- Averages (XTT-based assay reading) ([5]; 1 μM): 0.037
- % (percent of maximal proliferation, cells only) ([5]; 5 μM): 3%
- Averages (XTT-based assay reading) ([5]; 5 μM): 0.032
- inhibition of proliferation ([5]; 0.001-0.01 μM, 48-72 hours): Partial inhibition
- decrease of proliferation compared to cells treated with media only ([5]; 0.1-10 μM, 48-72 hours): 90-95%
- % (percent of maximal proliferation, cells only) ([5]; .001 μM): 86%
- Averages (XTT-based assay reading) ([5]; .001 μM): 1.065
- % (percent of maximal proliferation, cells only) ([5]; .01 μM): 61%
- Averages (XTT-based assay reading) ([5]; .01 μM): 0.754
- % (percent of maximal proliferation, cells only) ([5]; .1 μM): 2%
- Averages (XTT-based assay reading) ([5]; .1 μM): 0.028
- morphologic observations of inhibitor treated cells [6]: changes consistent with apoptosis
- morphologic observations of inhibitor treated cells ([7]; BR cells (data not shown)): changes consistent with apoptosis
- % (percent of maximal proliferation, cells only) ([7]; BR cells, 1 μM): 11%
- Averages (XTT-based assay reading) ([7]; BR cells, 1 μM): 0.105
- % (percent of maximal proliferation, cells only) ([7]; BR cells, 5 μM): 9%
- Averages (XTT-based assay reading) ([7]; BR cells, 5 μM): 0.083
- inhibition of proliferation ([7]; BR cells, 0.001-0.01 μM, 48-72 hours): Partial inhibition
- decrease of proliferation compared to cells treated with media only ([7]; BR cells, 0.1-10 μM, 48-72 hours): 90-95%
- % (percent of maximal proliferation, cells only) ([7]; BR cells, .001 μM): 84%
- Averages (XTT-based assay reading) ([7]; BR cells, .001 μM): 0.781
- % (percent of maximal proliferation, cells only) ([7]; BR cells, .01 μM): 52%
- Averages (XTT-based assay reading) ([7]; BR cells, .01 μM): 0.479
- % (percent of maximal proliferation, cells only) ([7]; BR cells, .1 μM): 11%
- Averages (XTT-based assay reading) ([7]; BR cells, .1 μM): 0.105
- Objective Tumors Responses [8]: observed
